Experimental data published in patent US6737383B1, “Herbicidal oxadiazolidines” (priority 1999, dated 2004).

Experiments:
bedstraw = experiment: Test B pre/postemergence bedstraw; type: in vivo, Galium aparine
Outline: (§1)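 Herbicidal effect was estimated by eye on a ten-point control scale after plants spent twelve to sixteen days in a greenhouse following soil or foliar treatment. Foliar sprays targeted plants at one to four leaves; all doses were formulated in a non-phytotoxic solvent with surfactant.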

blackgrass = experiment: Test B pre/postemergence blackgrass; type: in vivo, Alopecurus myosuroides
Outline: as §1

surinam grass = experiment: Test B pre/postemergence surinam grass; type: in vivo, Brachiaria decumbens
Outline: as §1

cocklebur = experiment: Test B pre/postemergence cocklebur; type: in vivo, Xanthium strumarium
Outline: as §1

corn = experiment: Test B pre/postemergence corn; type: in vivo, Zea mays
Outline: as §1

crabgrass = experiment: Test B pre/postemergence crabgrass; type: in vivo, Digitaria sanguinalis
Outline: as §1

giant foxtail = experiment: Test B pre/postemergence giant foxtail; type: in vivo, Setaria faberii
Outline: as §1

morningglory = experiment: Test B pre/postemergence morningglory; type: in vivo, Ipomoea hederacea
Outline: as §1

pigweed = experiment: Test B pre/postemergence pigweed; type: in vivo, Amaranthus retroflexus
Outline: as §1

rape = experiment: Test B pre/postemergence rape; type: in vivo, Brassica napus
Outline: as §1

soybean = experiment: Test B pre/postemergence soybean; type: in vivo, Glycine max
Outline: as §1

sugar beet = experiment: Test B pre/postemergence sugar beet; type: in vivo, Beta vulgaris
Outline: as §1

velvetleaf = experiment: Test B pre/postemergence velvetleaf; type: in vivo, Abutilon theophrasti
Outline: as §1

wheat = experiment: Test B pre/postemergence wheat; type: in vivo, Triticum aestivum
Outline: as §1

wild oat = experiment: Test B pre/postemergence wild oat; type: in vivo, Avena fatua
Outline: as §1

purple nutsedge = experiment: Test B pre/postemergence purple nutsedge; type: in vivo, Cyperus rotundus
Outline: as §1

[1] = Postemergence, Rate 62 g/ha, scale 0 to 10, 0 is no effect, 10 is complete control
[2] = Postemergence, Rate 125 g/ha, scale of 0 to 10 where 0 is no effect and 10 is complete control
[3] = Preemergence, Rate 125 g/ha, scale of 0 to 10 where 0 is no effect and 10 is complete control
[4] = Preemergence, Rate 250 g/ha, scale 0 (no effect) to 10 (complete control)
[5] = Rate 62 g/ha, Preemergence, scale 0 to 10
[6] = Rate 250 g/ha, Postemergence, scale 0 to 10, 0 is no effect, 10 is complete control
[7] = Rate 500 g/ha, Preemergence, scale 0 to 10 (0 no effect, 10 complete control)
[8] = Rate 500 g/ha, Postemergence, scale 0 to 10, 0 is no effect, 10 is complete control

Compound: Cc1nc(C(C)n2c(=O)on(C(=O)N(c3ccccc3)C(C)C)c2=O)sc1C (stereo not shown) [Compound 756]
- Plant response rating, Bedstraw (bedstraw; [1]): 0
- Bedstraw plant response rating (bedstraw; [2]): 0
- Plant response rating, Bedstraw (bedstraw; [3]): 0
- Bedstraw plant response rating (bedstraw; [4]): 0
- Bedstraw plant response rating (bedstraw; [5]): 0
- Bedstraw plant response rating (bedstraw; [6]): 3
- Bedstraw plant response rating (bedstraw; [7]): 0
- Plant response rating, Blackgrass (blackgrass; [1]): 0
- Blackgrass plant response rating (blackgrass; [2]): 0
- Plant response rating, Blackgrass (blackgrass; [3]): 2
- Blackgrass plant response rating (blackgrass; [4]): 4
- Blackgrass plant response rating (blackgrass; [5]): 0
- Blackgrass plant response rating (blackgrass; [6]): 0
- Blackgrass plant response rating (blackgrass; [8]): 3
- Blackgrass plant response rating (blackgrass; [7]): 7
- Plant response rating, B. signalgrass (surinam grass; [1]): 0
- B. signalgrass plant response rating (surinam grass; [2]): 0
- B. signalgrass plant response rating (surinam grass; Preemergence, Rate 62 g/ha, scale of 0 to 10 where 0 is no effect and 10 is complete control): 0
- Plant response rating, B. signalgrass (surinam grass; [3]): 0
- B. signalgrass plant response rating (surinam grass; [4]): 0
- B. signalgrass plant response rating (surinam grass; [6]): 0
- B. signalgrass plant response rating (surinam grass; [8]): 2
- B. signalgrass plant response rating (surinam grass; [7]): 3
- Plant response rating, Cocklebur (cocklebur; [1]): 0
- Cocklebur plant response rating (cocklebur; [2]): 0
- Plant response rating, Cocklebur (cocklebur; [3]): 0
- Cocklebur plant response rating (cocklebur; [4]): 0
- Cocklebur plant response rating (cocklebur; [5]): 0
- Cocklebur plant response rating (cocklebur; [6]): 0
- Cocklebur plant response rating (cocklebur; [8]): 0
- Cocklebur plant response rating (cocklebur; [7]): 0
- Plant response rating, Corn (corn; [1]): 0
- Corn plant response rating (corn; [2]): 0
- Plant response rating, Corn (corn; [3]): 0
- Corn plant response rating (corn; [4]): 0
- Corn plant response rating (corn; [5]): 0
- Corn plant response rating (corn; [6]): 0
- Corn plant response rating (corn; [8]): 0
- Corn plant response rating (corn; [7]): 0
- Plant response rating, Crabgrass (crabgrass; [1]): 0
- Crabgrass plant response rating (crabgrass; [2]): 0
- Plant response rating, Crabgrass (crabgrass; [3]): 9
- Crabgrass plant response rating (crabgrass; [4]): 9
- Crabgrass plant response rating (crabgrass; [5]): 4
- Crabgrass plant response rating (crabgrass; [6]): 0
- Crabgrass plant response rating (crabgrass; [8]): 3
- Crabgrass plant response rating (crabgrass; [7]): 9
- Plant response rating, Giant foxtail (giant foxtail; [1]): 0
- Giant foxtail plant response rating (giant foxtail; [2]): 0
- Plant response rating, Giant foxtail (giant foxtail; [3]): 9
- Giant foxtail plant response rating (giant foxtail; [4]): 9
- Giant foxtail plant response rating (giant foxtail; [5]): 7
- Giant foxtail plant response rating (giant foxtail; [6]): 0
- Giant foxtail plant response rating (giant foxtail; [8]): 0
- Giant foxtail plant response rating (giant foxtail; [7]): 9
- Plant response rating, Morningglory (morningglory; [1]): 4
- Morningglory plant response rating (morningglory; [2]): 7
- Plant response rating, Morningglory (morningglory; [3]): 0
- Morningglory plant response rating (morningglory; [4]): 0
- Morningglory plant response rating (morningglory; [5]): 0
- Morningglory plant response rating (morningglory; [6]): 10
- Morningglory plant response rating (morningglory; [8]): 10
- Morningglory plant response rating (morningglory; [7]): 0
- Plant response rating, Redroot pigweed (pigweed; [1]): 0
- Redroot pigweed plant response rating (pigweed; [2]): 0
- Plant response rating, Redroot pigweed (pigweed; [3]): 0
- Redroot pigweed plant response rating (pigweed; [4]): 0
- Redroot pigweed plant response rating (pigweed; [5]): 0
- Redroot pigweed plant response rating (pigweed; [6]): 0
- Redroot pigweed plant response rating (pigweed; [8]): 3
- Redroot pigweed plant response rating (pigweed; [7]): 0
- Plant response rating, Rape (rape; [1]): 0
- Rape plant response rating (rape; [2]): 0
- Plant response rating, Rape (rape; [3]): 0
- Rape plant response rating (rape; [4]): 0
- Rape plant response rating (rape; [5]): 0
- Rape plant response rating (rape; [6]): 0
- Rape plant response rating (rape; [8]): 3
- Rape plant response rating (rape; [7]): 0
- Plant response rating, Soybean (soybean; [1]): 2
- Plant response rating, Soybean (soybean; [3]): 0
- Soybean plant response rating (soybean; [4]): 0
- Soybean plant response rating (soybean; [5]): 0
- Soybean plant response rating (soybean; [6]): 2
- Soybean plant response rating (soybean; [8]): 2
- Soybean plant response rating (soybean; [7]): 0
- Plant response rating, Sugarbeets (sugar beet; [1]): 0
- Plant response rating, Sugarbeets (sugar beet; [3]): 0
- Sugarbeets plant response rating (sugar beet; [4]): 0
- Sugarbeets plant response rating (sugar beet; [5]): 0
- Sugarbeets plant response rating (sugar beet; [6]): 0
- Sugarbeets plant response rating (sugar beet; [8]): 0
- Sugarbeets plant response rating (sugar beet; [7]): 0
- Plant response rating, Velvetleaf (velvetleaf; [1]): 0
- Plant response rating, Velvetleaf (velvetleaf; [3]): 0
- Velvetleaf plant response rating (velvetleaf; [4]): 0
- Velvetleaf plant response rating (velvetleaf; [5]): 0
- Velvetleaf plant response rating (velvetleaf; [6]): 0
- Velvetleaf plant response rating (velvetleaf; [8]): 0
- Velvetleaf plant response rating (velvetleaf; [7]): 0
- Plant response rating, Wheat (wheat; [1]): 0
- Plant response rating, Wheat (wheat; [3]): 0
- Wheat plant response rating (wheat; [4]): 0
- Wheat plant response rating (wheat; [5]): 0
- Wheat plant response rating (wheat; [6]): 0
- Wheat plant response rating (wheat; [8]): 0
- Wheat plant response rating (wheat; [7]): 0
- Plant response rating, Wild oats (wild oat; [1]): 0
- Plant response rating, Wild oats (wild oat; [3]): 0
- Wild oats plant response rating (wild oat; [4]): 0
- Wild oats plant response rating (wild oat; [5]): 0
- Wild oats plant response rating (wild oat; [6]): 0
- Wild oats plant response rating (wild oat; [8]): 0
- Wild oats plant response rating (wild oat; [7]): 0
- Plant response rating, Nutsedge (purple nutsedge; [1]): 0
- Nutsedge plant response rating (purple nutsedge; [2]): 0
- Plant response rating, Nutsedge (purple nutsedge; [3]): 0
- Nutsedge plant response rating (purple nutsedge; [4]): 0
- Nutsedge plant response rating (purple nutsedge; [6]): 0
- Nutsedge plant response rating (purple nutsedge; [8]): 0
- Nutsedge plant response rating (purple nutsedge; [7]): 7
